Three compounds from patent publication US8614064B2, “Methods of diagnosing atherosclerosis by measuring ApoCI” (The Johns Hopkins University, priority 2003, dated 2013) can be followed below.

The target of assay [1] is T1, acid sphingomyelinase (Homo sapiens, UniProt P17405).
T1 construct: acid sphingomyelinase activity (control: 400 nmol/mg protein; GW4869: 340 nmol/mg protein) in cultured human ASMC; host or cells: cultured human ASMC
T1 sequence (P17405 47-631): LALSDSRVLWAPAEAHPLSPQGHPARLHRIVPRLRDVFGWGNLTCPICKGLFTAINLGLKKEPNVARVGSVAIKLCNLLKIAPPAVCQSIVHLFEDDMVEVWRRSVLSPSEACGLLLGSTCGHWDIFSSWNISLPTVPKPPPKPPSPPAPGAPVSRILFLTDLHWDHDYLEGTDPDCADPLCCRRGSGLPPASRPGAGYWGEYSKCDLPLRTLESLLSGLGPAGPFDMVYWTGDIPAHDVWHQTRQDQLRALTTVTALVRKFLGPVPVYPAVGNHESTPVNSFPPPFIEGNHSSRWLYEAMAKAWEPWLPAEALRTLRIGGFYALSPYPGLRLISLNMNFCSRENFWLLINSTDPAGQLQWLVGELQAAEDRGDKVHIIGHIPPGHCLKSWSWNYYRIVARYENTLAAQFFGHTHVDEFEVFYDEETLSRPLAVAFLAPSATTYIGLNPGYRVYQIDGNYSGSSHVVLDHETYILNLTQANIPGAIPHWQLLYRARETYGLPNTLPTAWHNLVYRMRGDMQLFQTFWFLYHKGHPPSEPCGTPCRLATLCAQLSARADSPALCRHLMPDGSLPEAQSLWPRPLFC
Description: Acid sphingomyelinase activity in cultured human ASMC (specificity of GW4869). It counts as cell-based. Particulars: with GW4869; control 400 nmol/mg protein; did not alter.

In assay [2] the test system is human aortic smooth muscles cells (ASMC). As to the kind of experiment: DNA laddering assay. Type of assay: cell-based. The note with it: ApoCI or ApoCIII 2.5 μg/mL, TNF-α positive control. As for the experimental part: FIGS. 1A-1C depict the effect of apolipoproteins on apoptosis in human aortic smooth muscles cells (ASMC). ASMC were grown on sterilized glass cover slips and incubated for 24 hours with media alone (control), ApoCIII (negative control, 2.5 μg/mL medium), ApoCI (2.5 μg/mL medium), ApoCI-enriched HDL (1 μg apoA-I/mL medium), or ApoCI-poor HDL (5 μg apoA-I/mL medium) for 24 hours. Cells were then fixed with ethanol-acetic acid (3:1 volume/volume) and washed 3 times with phosphate-buffered saline. The cells were then stained with DAPI reagent, mounted on a glass cover slide, and subjected to fluorescence microscopy. FIG. 1A: The nucleus of normal cells stains blue and the nucleus of apoptotic cells stains is fragmented white. FIG. 1B: 300 to 500 cells in each sample were counted and the percent of apoptotic cells was plotted. Values are mean±SD; **P<0.01, ***P<0.001. FIG. 1C: DNA ladder assay. Confluent cultures of ASMC were incubated with control medium alone, ApoCI (2.5 μg/mL medium), ApoCIII (negative control, 2.5 μg/mL medium), and TNF-α (positive control, 20 ng/mL medium). Genomic DNA was extracted and 10 μg DNA was subjected to agarose gel electrophoresis. The gels were calibrated with commercially available DNA standards. After electrophoresis, the gels were stained with ethidium bromide and then photographed.
Cells were treated with either TNF-α (30 ng/ml), ApoCI or ApoCIII (2.5 μg/ml) for 6 h. The cells were then washed twice with minimal essential medium and harvested with buffer (10 mM HEPES, pH 7.4. 5 mM EDTA, 0.25 mM EGTA, 50 mM NaF, 5 mM β-mercaptoethanol, 0.35 M sucrose, 0.1% Nonidet and protease inhibitors, 1 mM phenylmethylsulfonyl fluoride, 2 μg/ml leupeptin and 5 μg/ml pepstatin), and pelleted. Genomic DNA was prepared employing standard protocol. Genomic DNA was subjected to electrophoresis, stained with ethidium bromide and the gel was photographed. The gel was calibrated using DNA fragments of known molecular weight.

Assay [3] concerns caveolin. Description: Western measurement of caveolin-I level in AoSMC. It counts as cell-based, human. The note with it: ApoCI-treated cells. As for the experimental part:
(§1) Confluent cultures of AoSMC were preincubated with serum-free medium for 30 min and then treated with ApoCI (2.5 μg/ml medium), HMS (58.8 μg apoA-I/ml medium and 6.2 μg ApoCI/ml medium), and C2-Ceramide (30 μM). At indicated time periods cells were harvested in PBS and pellets lysed in 10 mM HEPES buffer (pH 7.4) 5 mM EDTA, 0.25 mM EGTA, 50 mM NaF, 0.35 M sucrose, 0.1% Nonidet P-40 and protease inhibitors 2 μg/ml aprotinin, 10 μg/ml leupeptin, 5 μg/ml pepstatin, and 1 mM PMSF. Protein concentration was determined using BCA-kit (Pierce, Rockford, Ill.). 100 μg of protein was subjected to electrophoresis in denaturing conditions on 4-15% polyacrylamide gel and electro transferred onto nitrocellulose (BioRad, Rochester, N.Y.). After the transfer, membranes were blocked for 1 h at room temperature in TBS-T/5% milk. Western assay was performed using rabbit caveolin-I (1:1000), SR-BI (1:5000) or goat ABCA1 (1:1000) primary antibody (Santa Cruz Biotechnology, Santa Cruz, Calif.) and horseradish peroxidase-conjugated anti-rabbit or anti-goat antibody (Amersham Pharmacia Biotech, Piscataway, N.J.). Blots were developed using ECL^plus Western blotting detection reagents (Amersham Pharmacia Biotech) and were scanned by laser densitometry. The intensity of the signals were quantified with the ImageGuant program (Molecular Dynamic, Sunnyvale, Calif.).

Assay [4] has as its system SR-BI. Description: Western measurement of scavenger receptor BI level in AoSMC. Type of assay: cell-based, human. The note with it: ApoCI-treated cells. Here is the method:
as §1

For assay [5], the system named is Src kinase. As to the kind of experiment: Analysis of p53/p56 Lyn (Src) kinase expression in AoSMC. Type of assay: cell-based, human. Particulars: ApoCI-treated cells. Here is the method: Confluent cultures of AoSMC were incubated with ApoCI (2.5 μg/ml medium), ApoCIII (2.5 μg/ml medium), ApoCI-enriched HDL (1 μg apoA-I/ml medium), or […] (5 μg apoA-I/ml medium). Cells were harvested in PBS at various time intervals and stored frozen in the presence of the protease inhibitor cocktail above. Western analysis for p53/p56 Lyn kinase was performed using primary anti-Lyn p53/p56 antibody (1:300) (Santa Cruz Biotechnology) and chemiluminescence (Amersham Pharmacia Biotech, Piscataway, N.J.).

In assay [1], `O=C(/C=C/c1ccc(/C=C/C(=O)Nc2ccc(C3=NCCN3)cc2)cc1)Nc1ccc(C2=NCCN2)cc1` [GW4869] registered an acid sphingomyelinase activity of 340 nmol/mg protein.
Consider “ApoCIII: purified human ApoCIII purchased from Academy Bio-Medical Company, used as negative control”, for which, in assay [2], the “DNA laddering on agarose gel (FIG. 1C)” value is “did not exhibit significant DNA laddering”.
For the compound “Apolipoprotein C-I (TPDVSSALDKLKEFGNTLEDKARELISRIKQSELSAKMREWFSETFQKVKEKLKIDS; UniProt P02654 27-83, looked up) [ApoCI, 6.6-kDa single-chain plasma protein of 57 amino acids; purified human ApoCI purchased from Academy Bio-Medical Company]”, the level of caveolin entry in assay [3] is recorded as “did not alter”. Moreover, the “cellular level of the scavenger receptor binding protein (SR-BI)” value in assay [4] is “transiently and significantly decreased”. In addition, the “effect on Src kinase” value in assay [5] is given as “stimulated”. The “DNA laddering on agarose gel (FIG. 1C)” value in assay [2] is listed as “exhibited DNA laddering”.
